Results from patent publication US5288706A, “Medicament for prevention and remedy of diseases of the pancreas and others” (Mitsui Toatsu Chemicals, Incorporated, priority 1987, dated 1994).
Like-named read-outs stand apart in the source and are kept apart here. Non-standard residues stand in square brackets, D forms with d. Residues, ends and D or L forms follow the SMILES beside them. pGlu = O=C1CC[C@@H](C(=O)O)N1

Columns and labels:
Wister rats = conditions: rat, in vivo, sc, 30 mg/kg
Protocol: (§1) Thus, the medicament of the present invention is a safe medicament of extremely low toxicity and can be administered for a long period of time.
No toxicity was observed when 30 mg/kg of FTS as the effective ingredient wa subcutaneously administered for consecutive 21 days to a group of ten Wister rats of 5 weeks old.

ddy male mice = conditions: mouse, in vivo, sc
Protocol: as §1
No toxicity was observed when 50 mg/kg and 100 mg/kg of FTS as the effective ingredient were subcutaneously administered for consecutive 14 days to a group of five ddy male mice of 5 weeks old.

With C[C@H](NC(=O)[C@@H]1CCC(=O)N1)C(=O)N[C@@H](CCCCN)C(=O)N[C@@H](CO)C(=O)N[C@@H](CCC(N)=O)C(=O)NCC(=O)NCC(=O)N[C@@H](CO)C(=O)N[C@@H](CC(N)=O)C(=O)O [FTS, pGlu-Ala-Lys-Ser-Gln-Gly-Gly-Ser-Asn] ([pGlu]AKSQGGSN-OH) as the molecule, how does the toxicity (Wister rats) read?
Its toxicity is “No toxicity”.

And the “toxicity (external behavior observation, biochemical diagnosis of sera, pathological anatomy)” value (Wister rats)?
The value was “no abnormal symptom”.

What about the toxicity (ddy male mice; 50 mg/kg) of the same molecule?
The toxicity was “No toxicity”.

What about the toxicity (ddy male mice; 100 mg/kg) of the same molecule?
Its toxicity is “No toxicity”.
